Data taken from patent publication US20240058291A1, “COMPOSITION FOR CONTROLLING SUGAR, CONTAINING ATYPICAL PKC ACTIVATOR” (INDUSTRY-ACADEMIC COOPERATION FOUNDATION, YONSEI UNIVERSITY, priority 2021, published 2024).

Columns and labels:
IEC-6 cells [1] = assay: Western blot of PKC zeta, p-GLUT1 and GLUT1 with ingenol, IEC-6 cells; assay type: cell-based; settings: ingenol 0.1 μM, vs empty vector negative control
Experimental: (§1) Transfected cell lines were generated by transfection such that PKC zeta was transiently overexpressed in IEC-6 cells, IEC-18 cells, and HEK293 (ATCC CRL-1573) cells. A rat PKC zeta-expressing plasmid (Korea Gene Bank) was subcloned into pCDNA3.1 (Addgene, USA). […] Cells were transfected with the expression plasmid using Polyjet transfection reagent (SignaGen) according to the manufacturer's instructions. Transfected cells were cultured for 48 hours at 37° C. before lysis and treated with ingenol (0.1 μM). Cell lysates were collected for the empty vector-infected cell group as a control group, the PKC zeta-transfected cell group, the wild-type cell group treated with ingenol, and the transfected cell group treated with ingenol, and subjected to Western blotting. In Western blotting, Na/K ATPase was used as a membrane loading control.

HEK293 = assay: Western blot of PKC zeta, p-GLUT1 and GLUT1 with ingenol, HEK293 cells; assay type: cell-based; settings: vs empty vector negative control
Experimental: as §1

IEC-18 cells [2] = assay: Western blot of PKC and GLUT1 activation over time, IEC-18 cells; assay type: cell-based; settings: prostratin 2 μM; for activities of PKC zeta and GLUT1: ingenol 0.1 μM, 0, 15 and 60 minutes
Experimental: After treatment of IEC-18 cells with each of prostratin (2 μM) and ingenol (0.1 μM) for 0, 15, and 60 minutes, the expression of PKC and GLUT1 proteins was analyzed by Western blotting.

db/db mice [3] = assay: Body weight in diabetic model mice, daily intraperitoneal injection for 40 days; assay type: in vivo
Experimental: Each of prostratin (0.5 mg/kg) and ingenol (1 μg/kg) was intraperitoneally injected daily for 40 days into db/db mice (Jackson Laboratory), known as a representative diabetes model due to deficiency of the leptin receptor, and then the body weight of each mouse was measured.

IEC-18 cells [4] = assay: Intracellular glucose (2-DG) uptake, IEC-18 cells; assay type: cell-based; settings: 100 nM
Experimental: (§2) IEC-6 cells and IEC-18 cells were treated with each of prostratin and ingenol (100 nM) for 10 minutes, and then uptake of 2-deoxy-D-glucose (2-DG) in the collected cell lysates was analyzed. By measuring the glucose concentration, changes in glucose uptake (2-DG uptake) by treatment with each of prostratin and ingenol were determined. The amount of glucose was measured after treatment with each of prostratin and ingenol in a low-concentration glucose medium and serum-free DMEM for 24 hours. Glucose levels in the IEC-6 and IEC-18 cells were detected using a Glucose Assay Kit (Cayman Chemical) according to the manufacturer's instructions. Absorbance signals were measured with a Gen5 spectrophotometer (BioTek, Winooski, VT, USA).

IEC-18 cells [5] = assay: Western blot of PKC zeta, p-GLUT1 and GLUT1 with ingenol, IEC-18 cells; assay type: cell-based; settings: ingenol 0.1 μM, vs empty vector negative control
Experimental: as §1

C57BL6 mice [6] = assay: IP glucose tolerance test after single subcutaneous injection; assay type: in vivo; settings: 2 g/kg glucose
Experimental: After 12 C57BL6 mice were fasted for 12 hours, fasting blood glucose was measured by performing an intraperitoneal glucose test. Thereafter, ingenol (4 μg/kg) and prostratin (1 mg/kg) was injected subcutaneously once into the ingenol-administered group (4 mice) and the prostratin-administered group, respectively, and 2 g of glucose per kg of mouse (2 g/kg glucose) was diluted in physiological saline and intraperitoneally administered to each mouse. Thereafter, an IP glucose tolerance test was performed at 15 minutes, 30 minutes, 60 minutes, 90 minutes, and 120 minutes.

db/db mice [7] = assay: Intraperitoneal glucose tolerance test (IPGTT) in diabetic model mice on day 17; assay type: in vivo
Experimental: Each of prostratin (0.5 mg/kg) and ingenol (1 μg/kg) was intraperitoneally injected daily for 40 days into db/db mice (Jackson Laboratory), known as a representative diabetes model due to deficiency of the leptin receptor, and then the body weight of each mouse was measured. On day 17 after drug administration, an intraperitoneal glucose tolerance test (IPGTT) was performed. […] In the group to which 1 μg/kg of ingenol was administered, the glucose improvement effect appeared at 240 minutes after glucose administration.

IEC-6 cells [8] = assay: Western blot of GLUT transporters after treatment, IEC-6 cells; assay type: cell-based; settings: for GLUT1 phosphorylation: 30, 100 and 300 nM, 30 minutes, Western blot; for expression of p-GLUT1 and GLUT1: compared to Na/K ATPase
Experimental: (§3) For culture of IEC-6 cells (ATCC CRL-1592) and IEC-18 cells (ATCC CRL-1589), which are intestinal epithelial cells, the cells were cultured using Dulbecco's modified Eagle medium (DMEM) supplemented with 10% fetal bovine serum (FBS) and penicillin-streptomycin at 37° C. in a humidified atmosphere containing 10% CO2 and 90% air, and were subcultured every 3 to 4 days. […] When the cell density reached 1.5×10^5 cells/cm^2 after 6 days, the cultures were collected and used. Prostratin was purchased from Sigma-Aldrich (Cat. No. P0077) and used. Ingenol was purchased from Sigma-Aldrich (Cat. No. SML1318) and used. IEC-6 cells and IEC-18 cells were treated with each of prostratin and ingenol at 30 nM, 100 nM, and 300 nM for 30 minutes, cell lysates were collected, and protein expression levels thereof were analyzed by Western blotting. Western blot analysis was performed as follows. Total cell protein lysates were prepared and subjected to Western blot analysis according to standard procedures. Briefly, cells were chilled on ice, washed twice with ice-cold phosphate-buffered saline, and lysed in buffer containing 1 mM. phenylmethylsulfonyl fluoride and lx protease inhibitor (Sigma-Aldrich). Protein concentration was measured with a Bradford assay kit (Bio-Rad, Hercules, CA, USA). Equal amounts of protein from the cell lysates were resolved by sodium dodecyl sulfate polyacrylamide gel electrophoresis and transferred to membranes which were then incubated with anti-PKCα (Cell Signaling Technology, USA), anti-PKCδ (Cell Signaling Technology, USA), anti-PKCζ (Cell Signaling Technology, USA), anti-p-GLUT1 (Abcam, GB), anti-GLUT1 (Abcam, GB) and anti-GLUT2 (Novus Biological, USA) as primary antibodies overnight at 4° C. The blots were washed 3 times with TBST (Tris-buffered saline containing 0.05% Tween 20) and then incubated with horseradish peroxidase (HRP)-conjugated secondary antibodies for 1 hour at 25° C. As the secondary antibodies, donkey anti-rabbit IgG-HRP antibody (1:5000, Santa Cruz) and donkey anti-mouse IgG-HRP antibody (1:5000, Santa Cruz) were used. Immunoreactivity was detected with SuperSignal West Pico Chemiluminescent Substrate (Thermo Fisher Scientific, MA, USA).

IEC-6 cell line [9] = assay: 2DG uptake after PKC siRNA transfection; assay type: cell-based; settings: prostratin 1 μM or ingenol 100 nM
Experimental: In order to identify which PKC subtypes induce increased glucose uptake (2DG uptake) in IEC cells by treatment with each of prostratin and ingenol, the IEC-6 cell line was transfected with siRNA for each of conventional PKC (PKCα), novel PKC ([…]), and atypical PKCs (PKCζ and […]) as described in Example 7. After 48 hours, the cells were treated with prostratin (1 μM) or ingenol (100 nM), and 2DG uptake therein was analyzed.

IEC-18 cells [10] = assay: Glucose uptake with and without PKC zeta inhibitor ZIP, IEC-18 cells; assay type: cell-based; settings: 100 nM
IEC-18 cells [11] = assay: Western blot of GLUT transporters after treatment, IEC-18 cells; assay type: cell-based; settings: for GLUT1 phosphorylation: 30, 100 and 300 nM, 30 minutes, Western blot; for expression of p-GLUT1 and GLUT1: compared to Na/K ATPase
Experimental: as §3

IEC-6 cells [12] = assay: Glucose uptake with and without PKC zeta inhibitor ZIP, IEC-6 cells; assay type: cell-based; settings: 100 nM
IEC-6 cells [13] = assay: Intracellular glucose (2-DG) uptake, IEC-6 cells; assay type: cell-based; settings: 100 nM
Experimental: as §2

C57BL6 mice [14] = assay: IP glucose tolerance test after 2 weeks of administration by osmotic pump; assay type: in vivo; settings: 0.5 mg/kg and 1 mg/kg for 2 weeks, 2 g/kg glucose
Experimental: Prostratin was administered to C57BL6 mice at concentrations of 0 mg/kg, 0.5 mg/kg, and 1 mg/kg for 2 weeks using an osmotic pump, followed by fasting for 12 hours. Then, 2 g of glucose per kg of mouse (2 g/kg glucose) was diluted in physiological saline and intraperitoneally administered to each mouse. Thereafter, an IP glucose tolerance test was performed at 15 minutes, 30 minutes, 60 minutes, 90 minutes, and 120 minutes.

human pancreatic tumors = settings: orally administered; cited from earlier work
IEC-6 cell line [15] = assay: Western blot of p-GLUT1 after PKC siRNA transfection and prostratin treatment; assay type: cell-based; settings: prostratin 1 μM
Experimental: To identify which PKC subtypes induce GLUT1 activation by each of prostratin and ingenol, the IEC-6 cell line was transfected with 50 nM of siRNA for each of conventional PKC (PKCα), novel PKC ([…]), and atypical PKCs (PKCζ and […]) using RNAiMax (Invitrogen). After 48 hours, the cells were treated with prostratin (1 μM), and total protein was extracted and subjected to Western blotting. The siRNA sequences used are as follows.

db/db mice [16] = assay: 18FDG absorption and excretion in intestines of diabetic model mice; assay type: in vivo; settings: 0.5 mg/kg for 1 month
Experimental: The intestines of db/db mice (Jackson Laboratory) to which 0.5 mg/kg of prostratin had been administered for 1 month were harvested and radiographed for 18FDG (fluorodeoxyglucose, DuChemBio). 18FDG was purchased from DuChemBio and 200 μCi was injected into each mouse via the tail vein. In addition, 18FDG in a fecal sample obtained by washing the harvested small intestine with 5 mL of PBS was measured, and 18FDG uptake of the duodenum, jejunum, and ileum of the small intestine was measured with a gamma counter.

db/db mice [17] = assay: Immunohistochemical staining of PKC zeta in small intestine of diabetic model mice; assay type: in vivo; settings: 0.5 mg/kg for 1 month
Experimental: After administration of prostratin (0.5 mg/kg) or vehicle to db/db mice for 1 month, the small intestine was harvested, and the duodenum, jejunum, and ileum were fixed with formalin, subjected to immunohistochemical staining with anti-PKC zeta antibody (Abcam, USA), and imaged with an optical microscope at 100× and 400× magnifications.

db/db mice [18] = assay: Electron microscopy of apical membrane of jejunum lumen of diabetic model mice; assay type: in vivo; settings: 0.5 mg/kg for 1 month, electron microscope
[19] = atypical PKC (PKCζ and PKC↓)-knockdown group

Compound: C/C=C(/C)C(=O)O[C@H]1C(C)=C[C@]23C(=O)[C@@H](C=C(CO)[C@@H](O)[C@]12O)[C@H]1[C@@H](C[C@H]3C)C1(C)C [ingenol-3-angelate]
- GLUT1 translocation (IEC-6 cells [1]): translocated
- PKC zeta activation and translocation to the cell membrane (IEC-6 cells [1]): activated and translocated to the cell membrane
- GLUT1 translocation (HEK293): translocated
- PKC zeta activation and translocation to the cell membrane (HEK293): activated and translocated to the cell membrane
- activities of PKC zeta and GLUT1 (IEC-18 cells [2]): increased
- weight loss (db/db mice [3]; ingenol 1 μg/kg i.p. daily, increased to 2 μg/kg on day 28, day 30): showed statistical significance
- intracellular glucose (2-DG) uptake (IEC-18 cells [4]): increased
- GLUT1 translocation (IEC-18 cells [5]): translocated
- PKC zeta activation and translocation to the cell membrane (IEC-18 cells [5]): activated and translocated to the cell membrane
- glucose metabolism (IP glucose tolerance test) compared to negative control (C57BL6 mice [6]; ingenol 4 μg/kg subcutaneously once): improved
- glucose improvement effect (IPGTT) (db/db mice [7]; ingenol 1 μg/kg, at 240 minutes after glucose administration): appeared
- GLUT1 phosphorylation (IEC-6 cells [8]): promoted
- expression of p-GLUT1 and GLUT1 (IEC-6 cells [8]): increased
- 2DG uptake (IEC-6 cell line [9]; [19]): not increased
- 2DG uptake (IEC-6 cell line [9]; negative control group (siNeg)): increased
- 6-phosphate glucose in the cells (IEC-18 cells [10]): increased
- GLUT1 phosphorylation (IEC-18 cells [11]): promoted
- expression of p-GLUT1 and GLUT1 (IEC-18 cells [11]): increased
- 6-phosphate glucose in the cells (IEC-6 cells [12]): increased
- intracellular glucose (2-DG) uptake (IEC-6 cells [13]): increased

Compound: CC(=O)O[C@@]12C[C@@H](C)[C@@]3(O)[C@@H](C=C(CO)C[C@]4(O)C(=O)C(C)=C[C@@H]34)[C@@H]1C2(C)C [prostratin]
- area values under the glucose change curve for 2 hours (C57BL6 mice [14]): improved
- effect on human pancreatic tumors (human pancreatic tumors): inhibited
- expression of GLUT1 (p-GLUT1) (IEC-6 cell line [15]; negative control group (siNeg)): increased
- expression of GLUT1 (p-GLUT1) (IEC-6 cell line [15]; siRNA for atypical PKCs (PKCζ and PKC↓)): did not increase
- translocation of PKC and GLUT1 to the cell membrane, prostratin compared with ingenol (IEC-18 cells [2]; ingenol 0.1 μM): more rapidly translocated
- activities of PKC zeta and GLUT1 (IEC-18 cells [2]): increased
- glucose absorption in duodenum, jejunum and ileum (18FDG, gamma counter) (db/db mice [16]): more than doubled
- glucose absorption in the small intestine (18FDG radiographs) vs vehicle group (db/db mice [16]): significantly higher
- glucose excretion in the fecal samples (18FDG) (db/db mice [16]): higher
- weight loss compared to vehicle group (db/db mice [3]; prostratin 0.5 mg/kg i.p. daily, on and after day 11): showed statistical significance
- intracellular glucose (2-DG) uptake (IEC-18 cells [4]): increased
- PKC zeta staining in the duodenum vs vehicle (db/db mice [17]): no significant difference
- location of PKC zeta in the jejunum and ileum (db/db mice [17]): tended to be concentrated in the apical membrane of the lumen
- glucose metabolism (IP glucose tolerance test) compared to Vehicle (C57BL6 mice [6]; prostratin 1 mg/kg subcutaneously once, at 30 and 60 minutes): significantly improved
- glucose improvement (IPGTT) vs vehicle group (db/db mice [7]; prostratin 0.5 mg/kg, entire period of 30 to 240 minutes): superior to that in the control group
- GLUT1 phosphorylation (IEC-6 cells [8]): promoted
- expression of p-GLUT1 and GLUT1 (IEC-6 cells [8]): increased
- 2DG uptake (IEC-6 cell line [9]; [19]): not increased
- 2DG uptake (IEC-6 cell line [9]; negative control group (siNeg)): increased
- 6-phosphate glucose in the cells (IEC-18 cells [10]): increased
- GLUT1 phosphorylation (IEC-18 cells [11]): promoted
- expression of p-GLUT1 and GLUT1 (IEC-18 cells [11]): increased
- 6-phosphate glucose in the cells (IEC-6 cells [12]): increased
- glycocalyx near the microvilli of the jejunum vs vehicle (db/db mice [18]): secreted more
- number of mitochondria in the small intestine cells (db/db mice [18]): increased
- intracellular glucose (2-DG) uptake (IEC-6 cells [13]): increased
